In US9890152B2 (Genentech, Inc., priority 2012, dated 2018):

The molecules below were run against T1, EGFR del746-750 T790M (Homo sapiens, UniProt P00533, DEL746-750/T790M) (assay: EGFR del746-750 T790M biochemical assay (Caliper mobility shift)). Conditions: 5 μM ATP, 30 min, room temperature; apparent Ki (Morrison) converted by Cheng-Prusoff, Km of ATP 2.1 μM; read-out: EGFR(T790M/d746-750) Ki.
T1 construct: purchased Carna Biosciences 08-528
T1 sequence (P00533 with tags, fused parts or gaps DEL746-750/T790M limits assumed): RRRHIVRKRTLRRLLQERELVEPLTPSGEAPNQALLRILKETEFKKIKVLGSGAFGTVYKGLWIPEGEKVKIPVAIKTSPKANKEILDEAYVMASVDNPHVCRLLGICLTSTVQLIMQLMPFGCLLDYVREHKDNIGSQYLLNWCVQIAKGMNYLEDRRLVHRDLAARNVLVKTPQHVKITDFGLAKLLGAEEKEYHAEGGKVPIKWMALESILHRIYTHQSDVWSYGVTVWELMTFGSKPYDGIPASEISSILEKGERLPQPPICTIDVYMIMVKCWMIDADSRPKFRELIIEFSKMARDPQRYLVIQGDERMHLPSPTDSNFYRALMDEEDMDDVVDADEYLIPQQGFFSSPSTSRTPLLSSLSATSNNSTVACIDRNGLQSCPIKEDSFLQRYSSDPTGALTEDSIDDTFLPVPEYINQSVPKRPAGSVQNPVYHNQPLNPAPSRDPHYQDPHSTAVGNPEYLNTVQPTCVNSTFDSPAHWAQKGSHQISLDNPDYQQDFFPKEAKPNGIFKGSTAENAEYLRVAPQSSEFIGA

| Compound | Ki [nM] |
| --- | --- |
| CO[C@H]1CN(c2nccc(Nc3cc4c(cn3)nc(C)n4C(C)C)n2)CC[C@@H]1O (racemic) [Example 509, (±)-1-(4-((1-Isopropyl-2-methyl-1H-imidazo[4,5-c]pyridin-6-yl)amino)pyrimidin-2-yl)-3-methoxypiperidin-4-ol] | 348 |
| COC1CCN(c2nccc(Nc3cc4c(cn3)nc(C)n4Cc3ccccc3)n2)CC1 [Example 356, 1-Benzyl-N-[2-(4-methoxy-1-piperidyl)pyrimidin-4-yl]-2-methyl-imidazo[4,5-c]pyridin-6-amine] | 562 |
| COC1CCN(c2nccc(Nc3cc4c(cn3)c(-c3cnn(CCO)c3)cn4C(C)C)n2)CC1 [Example 402, 2-(4-(1-isopropyl-6-((2-(4-methoxypiperidin-1-yl)pyrimidin-4-yl)amino)-1H-pyrrolo[3,2-c]pyridin-3-yl)-1H-pyrazol-1-yl)ethanol] | 0.84 |
| CO[C@H]1CCN(c2nccc(Nc3cc4c(cn3)nc(C)n4C(C)C)n2)C[C@H]1F (racemic) [Example 524, (±)-[2-((cis)-3-Fluoro-4-methoxypiperidin-1-yl)pyrimidin-4-yl]-(1-isopropyl-2-methyl-1H-imidazo[4,5-c]pyridin-6-yl)amine] | 50.9 |
| CC(C)n1cc(C(=O)NC2CCOCC2)c2cnc(Nc3ccnc(N4CCC(O)C(C)(C)C4)n3)cc21 (racemic) [Example 385, (±)-6-((2-(4-hydroxy-3,3-dimethylpiperidin-1-yl)pyrimidin-4-yl)amino)-l-isopropyl-N-(tetrahydro-2H-pyran-4-yl)-1H-pyrrolo[3,2-c] pyridine-3-carboxamide] | 6.47 |
| COC1CCN(c2nccc(Nc3cc4c(cn3)nc(C)n4C(C)C3CC3)n2)CC1 (stereo not shown) [Example 268, [1-(1-Cyclopropylethyl)-2-methyl-1H-imidazo[4,5-c]pyridin-6-yl]-[2-(4-methoxypiperidin-1-yl)pyrimidin-4-yl]amine] | 6.88 |
| Cc1nc2cnc(Nc3ccnc(N4CCC5(CC4)OCCO5)n3)cc2n1C(C)C [Example 506, N-(2-(1,4-Dioxa-8-azaspiro[4.5]decan-8-yl)pyrimidin-4-yl)-1-isopropyl-2-methyl-1H-imidazo[4,5-c]pyridin-6-amine] | 117 |
| COC[C@H](C)n1c(C)nc2cnc(Nc3ccnc(N4CCC(OC)CC4)n3)cc21 [Example 490, [1-((S)-2-Methoxy-1-methylethyl)-2-methyl-1H-imidazo [4,5-c]pyridin-6-yl]-[2-(4-methoxypiperidin-1-yl)pyrimidin-4-yl]amine] | 746 |
| Cc1cc(-c2nccc(Nc3cc4c(cn3)nc(C)n4C(C)C)n2)sn1 [Example 360, 1-Isopropyl-2-methyl-N-(2-(3-methylisothiazol-5-yl)pyrimidin-4-yl)-1H-imidazo[4,5-c]pyridin-6-amine] | 29.7 |
| C[C@H](n1c([C@@H](C)O)nc2cnc(Nc3ccnc(N4CC[C@H](O)[C@H](F)C4)n3)cc21)C(F)(F)F [Example 289, (3R,4S)-3-Fluoro-1-{4-[2-((R)-1-hydroxyethyl)-1-((S)-2,2,2-trifluoro-1-methylethyl)-1H-imidazo[4,5-c]pyridin-6-ylamino]pyrimidin-2-yl}-piperidin-4-ol] | 3.35 |
| CC(C)n1cnc2cnc(Nc3ccnc(N4CCc5[nH]ncc5C4)n3)cc21 [Example 12, (1-Isopropyl-1H-imidazo[4,5-c]pyridin-6-yl)-[2-(1,4,6,7-tetrahydropyrazolo[4,3-c]pyridin-5-yl)pyrimidin-4-yl]amine] | 19.2 |
| Cc1nc2cnc(Nc3ccnc(NCC(C)(C)S(C)(=O)=O)n3)cc2n1C(C)C [Example 499, N^4-(1-Isopropyl-2-methyl-1H-imidazo[4,5-c]pyridin-6-yl)-N2-(2-methyl-2-(methylsulfonyl)propyl) pyrimidine-2,4-diamine] | 51.7 |
| CC(C)CC(C)n1c(CO)nc2cnc(Nc3ccnc(-c4cnn(S(=O)(=O)C5CC5)c4)n3)cc21 (stereo not shown) [Example 478, (6-(2-(1-(cyclopropylsulfonyl)-1H-pyrazol-4-yl)pyrimidin-4-ylamino)-1-(4-methylpentan-2-yl)-1H-imidazo[4,5-c]pyridin-2-yl)methanol] | 32.4 |
| CO[C@@H]1CCN(c2nccc(Nc3cc4c(cn3)nc(C)n4C(C)C)n2)C[C@H]1O (racemic) [Example 508, (±)-1-(4-((1-Isopropyl-2-methyl-1H-imidazo[4,5-c]pyridin-6-yl)amino)pyrimidin-2-yl)-4-methoxypiperidin-3-ol] | 359 |
| CC(C)n1cnc2cnc(Nc3ccnc(NCC(C)(C)C(N)=O)n3)cc21 [Example 85, 3-(4-(1-isopropyl-1H-imidazo[4,5-c]pyridin-6-ylamino)pyrimidin-2-ylamino)-2,2-dimethylpropanamide] | 20.8 |
| Cc1n[nH]cc1-c1nccc(Nc2cc3c(cn2)nc(C)n3C(C)C)n1 [Example 399, 1-isopropyl-2-methyl-N-(2-(3-methyl-1H-pyrazol-4-yl)pyrimidin-4-yl)-1H-imidazo[4,5-c]pyridin-6-amine] | 14.1 |

The remaining lines, values ahead:

| Ki [nM] | Compound |
| --- | --- |
| 1.73 | CC(C)n1c([C@@H](C)O)nc2cnc(Nc3ccnc(-c4cnn(S(=O)(=O)C5CC5)c4)n3)cc21 [Example 561, (R)-1-{6-[2-(1-Cyclopropanesulfonyl-1H-pyrazol-4-yl)pyrimidin-4-ylamino]-1-isopropyl-1H-imidazo[4,5-c]pyridin-2-yl}ethanol] |
| 3.85 | CCNc1nc2cnc(Nc3ccnc(-c4cnn(S(=O)(=O)C5CC5)c4)n3)cc2n1C(C)C [Example 556] |
| 21.7 | C[C@H](n1c([C@@H](C)O)nc2cnc(Nc3ccnc(N4CC[C@@](C)(O)[C@@H](F)C4)n3)cc21)C(F)(F)F (single isomer, unassigned) [Example 621, (3R*,4S*)-3-Fluoro-1-{4-[2-((R)-1-hydroxyethyl)-1-((S)-2,2,2-trifluoro-1-methylethyl)-1H-imidazo[4,5-c]pyridin-6-ylamino]pyrimidin-2-yl}-4-methylpiperidin-4-ol] |
| 5.68 | CC(C)n1cc(C(=O)NC2CCOCC2)c2cnc(Nc3ccnc(NCC(C)(C)S(C)(=O)=O)n3)cc21 [Example 664] |
| 305 | CO[C@@H]1CCN(c2nccc(Nc3cc4c(cn3)nc(CO)n4C(C)C)n2)C[C@H]1C [Example 699] |
| 3.35 | CCC(C)n1cc(C(=O)NCC(F)(F)F)c2cnc(Nc3ccnc(-c4cnn(S(=O)(=O)C5CC5)c4)n3)cc21 (stereo not shown) [Example 704] |
| 3.45 | C[C@H](n1c(CO)nc2cnc(Nc3ccnc(N4CC[C@H](O)[C@H](F)C4)n3)cc21)C(C)(F)F (racemic) [Example 644, (±)-(cis)-1-(4-(1-((S)-3,3-Difluorobutan-2-yl)-2-(hydroxymethyl)-1H-imidazo[4,5-c]pyridin-6-ylamino)pyrimidin-2-yl)-3-fluoropiperidin-4-ol] |
| 736 | CC(C)n1c(CO)nc2cnc(Nc3ccnc(N4C[C@@H]5C[C@H]4CO5)n3)cc21 [Example 691] |
| 4.53 | CC(n1cc(C(=O)NC2CCOCC2)c2cnc(Nc3ccnc(-c4cnn(S(=O)(=O)C5CC5)c4)n3)cc21)C(F)(F)F (stereo not shown) [Example 635, 6-(2-(1-(Cyclopropylsulfonyl)-1H-pyrazol-4-yl)pyrimidin-4-ylamino)-N-(tetrahydro-2H-pyran-4-yl)-1-(1,1,1-trifluoropropan-2-yl)-1H-pyrrolo[3,2-c]pyridine-3-carboxamide] |
| 4.02 | CCC(C)n1cc(N2CCCC2=O)c2cnc(Nc3ccnc(N4CC[C@@H](O)[C@@H](F)C4)n3)cc21 (mixture of isomers) [Example 641, 1-(1-(sec-butyl)-6-((2-((3S,4R)-3-fluoro-4-hydroxypiperidin-1-yl)pyrimidin-4-yl)amino)-1H-pyrrolo[3,2-c]pyridin-3-yl)pyrrolidin-2-one] |
| 36 | CC(C)n1c(CO)nc2cnc(Nc3ccnc(N4CCC5(OCCO5)C(F)C4)n3)cc21 (stereo not shown) [Example 654] |
| 7.02 | CC1CC1n1c(CO)nc2cnc(Nc3ccnc(-c4cnn(S(=O)(=O)C5CC5)c4)n3)cc21 (stereo not shown) [Example 698] |
| 93.5 | Cc1nc2cnc(Nc3ccnc(N4CCCC(F)C4)n3)cc2n1C(C)C (stereo not shown) [Example 590, [2-(3-Fluoropiperidin-1-yl)pyrimidin-4-yl]-(1-isopropyl-2-methyl-1H-imidazo[4,5-c]pyridin-6-yl)amine] |
| 4.4 | C[C@H](n1c([C@@H](C)O)nc2cnc(Nc3ccnc(N4C[C@@H](F)[C@@H](O)[C@@H](F)C4)n3)cc21)C(F)(F)F [Example 701] |
| 135 | Cc1nc2cnc(Nc3ccnc(N4CC[C@](C)(O)[C@H](F)C4)n3)cc2n1C(C)C [Example 672] |
| 239 | CC(C)n1c(CO)nc2cnc(Nc3ccnc(N4CC[C@H](O)[C@@](C)(F)C4)n3)cc21 [Example 702] |
| 4.01 | CCC(C)n1cc(C(=O)N[C@H]2CCOC[C@H]2F)c2cnc(Nc3ccnc(N4CC[C@@H](O)[C@@H](F)C4)n3)cc21 (mixture of isomers) [Example 637, 1-(sec-butyl)-6-((2-((3S,4R)-3-fluoro-4-hydroxypiperidin-1-yl)pyrimidin-4-yl)amino)-N-((3SR, 4SR)-3-fluorotetrahydro-2H-pyran-4-yl)-1H-pyrrolo[3,2-c]pyridine-3-carboxamide] |
| 236 | Cc1nc2cnc(Nc3ccnc(N4CC[C@H]([S+](C)[O-])[C@H](F)C4)n3)cc2n1C(C)C (mixture of isomers) [Example 618, [2-(±)-(cis-3-Fluoro-4-methanesulfinylpiperidin-1-yl)pyrimidin-4-yl]-(1-isopropyl-2-methyl-1H-imidazo[4,5-c]pyridin-6-yl)amine] |
| 7.26 | C[C@H](n1c(CO)nc2cnc(Nc3ccnc(N4CC[C@@H](O)[C@@H](F)C4)n3)cc21)C(F)(F)F [Example 666] |
| 14.4 | CC(n1cc(C(=O)NC2CCOCC2)c2cnc(Nc3ccnc(N4CCC(C)(O)CC4)n3)cc21)C(F)(F)F (stereo not shown) [Example 636, 6-(2-(4-Hydroxy-4-methylpiperidin-1-yl)pyrimidin-4-ylamino)-N-(tetrahydro-2H-pyran-4-yl)-1-(1,1,1-trifluoropropan-2-yl)-1H-pyrrolo[3,2-c]pyridine-3-carboxamide] |
| 55 | Cc1nc2cnc(Nc3ccnc(N4CCC(F)CC4)n3)cc2n1C(C)C [Example 591, [2-(4-Fluoropiperidin-1-yl)pyrimidin-4-yl]-(1-isopropyl-2-methyl-1H-imidazo[4,5-c]pyridin-6-yl)amine] |
